Measurements as given in PubChem BioAssay (NCI).
Where “and” joins values, the source holds several entries; their conditions need not be identical. Equal values may be shown once.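 Assay format: 96-well plates, 48-hour exposure. Here, GI50 denotes the concentration required for 50% inhibition of growth. TGI marks complete inhibition of growth.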

What was measured:
Experiment in all cases: growth of human tumour cells (NCI), 48 h
UACC-62 melanoma = system: UACC-62 melanoma
LOX IMVI melanoma = system: LOX IMVI melanoma
OVCAR-8 ovarian = system: OVCAR-8 ovarian
RXF 393 renal = system: RXF 393 renal
HOP-92 NSCLC = system: HOP-92 NSCLC
COLO 205 colon = system: COLO 205 colon
KM12 colon = system: KM12 colon
M14 melanoma = system: M14 melanoma
SR leukemia = system: SR leukemia
CCRF-CEM leukemia = system: CCRF-CEM leukemia

Row | Compound | GI50 (UACC-62 melanoma) | TGI (UACC-62 melanoma) | GI50 (LOX IMVI melanoma) | TGI (LOX IMVI melanoma) | GI50 (OVCAR-8 ovarian) | TGI (OVCAR-8 ovarian) | GI50 (RXF 393 renal) | TGI (RXF 393 renal) | GI50 (HOP-92 NSCLC) | TGI (HOP-92 NSCLC) | GI50 (COLO 205 colon) | TGI (COLO 205 colon) | GI50 (KM12 colon) | TGI (KM12 colon) | GI50 (M14 melanoma) | TGI (M14 melanoma) | GI50 (SR leukemia) | TGI (SR leukemia) | GI50 (CCRF-CEM leukemia) | TGI (CCRF-CEM leukemia)
1 | CCC(c1ccc(OC)cc1)C(CC)c1ccc(O)c(CN2CCN(C)CC2)c1 (stereo not given) | 1.99 µM | 4.16 µM | 2.48 µM | 7.64 µM | 6.35 µM | 21.8 µM | 2.83 µM | 12.2 µM | 2 µM | 9.64 µM | 1.73 µM | 3.42 µM | 3.68 µM | 12 µM | 1.99 µM | 3.8 µM | 1.71 µM | 5.44 µM | 5.37 µM | 20.4 µM
2 | Cc1cc2cc3ccc(N(C)C)cc3nc2cc1N | 0.744 µM | 2.71 µM | 0.325 µM | 5.01 µM | 0.374 µM | 2.36 µM | 0.41 µM | 1.34 µM | 1.14 µM | 4.69 µM | 0.389 µM | 2.01 µM | 0.439 µM | 2.18 µM | 0.682 µM | 2.14 µM | 0.536 µM | 5.68 µM | 0.772 µM | 10.7 µM
3 | Oc1ccc(-c2nc3ccc4[nH]ncc4c3c3c2CCCC3)c(F)c1 | 1.67 µM | 4.37 µM | 2.9 µM | 12.4 µM | 1.92 µM | 9.39 µM | 1.47 µM | 5.63 µM | 2.07 µM | 9.8 µM | 2.25 µM | 5.56 µM | 0.362 µM | 13.2 µM | 1.07 µM | 12 µM | 0.464 µM | 7.46 µM | 2.05 µM | 11.4 µM
4 | O=C1C2=C(c3ccccc31)C(c1ccccc1)N1C(=O)CSC1=N2 (stereo not given) |  | > 100 µM |  | > 100 µM |  | > 100 µM |  | 60.5 µM |  | > 100 µM |  | > 100 µM |  | > 100 µM |  | > 96.6 µM |  | > 100 µM |  | > 100 µM
5 | CC1=CC(=O)C(C(C)C)=CC1=Nc1cc(Br)c(O)c(Br)c1 | 2.86 µM | 13.1 µM | 5.04 µM | 20.4 µM | 4.65 µM | 57.8 µM | 3.9 µM | 15.3 µM | 11.5 µM | 40.8 µM | 19.2 µM | 35.1 µM | 2.33 µM | 7.01 µM | 2.52 µM | 7.52 µM | 3.45 µM | 15.8 µM | 2.72 µM | 18.1 µM
6 | CC1=C(/C=C/C(C)=C/C=C/C(C)=C/C=N/NC(=S)NC(=S)N/N=C/C=C(C)/C=C/C=C(C)/C=C/C2=C(C)CCCC2(C)C)C(C)(C)CCC1 | 1.48 µM and 0.89 µM | 6.09 µM and 2.43 µM | 1.8 µM and 1.11 µM | 6.53 µM and 3.02 µM | 3.71 µM and 2.06 µM | 12.3 µM and 7.32 µM | 0.935 µM and 0.847 µM | 1.87 µM and 1.58 µM | 5.82 µM and 2.33 µM | 13.4 µM and 6.76 µM | 1.46 µM and 0.903 µM | 5.14 µM and 1.71 µM | 2.74 µM and 1.32 µM | 9.21 µM and 3.97 µM | 1.24 µM and 0.918 µM | 3.73 µM and 1.74 µM | 1.43 µM and 0.938 µM | 8.12 µM and 3.79 µM | 1.71 µM and 0.686 µM | 25.8 µM and 4.45 µM
7 | CCCC(C)n1c(C)nc2c1C(=O)c1ccccc1C2=O (stereo not given) |  | 23.8 µM |  | 23.6 µM |  | > 100 µM |  | 69.2 µM |  | 66.8 µM |  | > 100 µM |  | > 100 µM |  | 93.7 µM |  | > 100 µM |  | > 100 µM
8 | N#Cc1c(Br)n(C2OC(CO)C(O)C2O)c2ncnc(N)c12 (stereo not given) | 2.64 µM | 6.09 µM | 1.13 µM | 16.4 µM | 1.59 µM | > 100 µM | 0.847 µM | 6.8 µM | 0.738 µM | 4.02 µM | 0.675 µM | 3.07 µM | 1.71 µM | > 40.1 µM | 2.18 µM | 17.8 µM | 0.827 µM | 4.98 µM | 0.241 µM | 3.87 µM
9 | COc1ccc(S(=O)(=O)NC2=NCCN2C(=S)SN2CCn3c2nsc3=S)cc1 | 12.2 µM | 27.4 µM | 15.5 µM | 33.1 µM | 27.3 µM | > 100 µM | 4.11 µM | 22.1 µM | 16.9 µM | 35.4 µM | 11 µM | 27.4 µM | 18.7 µM | 37.7 µM | 14.9 µM | 31 µM | 17 µM | > 100 µM | 7.95 µM | 32.4 µM
10 | COP(=O)(OC)C(NC(=O)C(F)(F)F)(c1ccccc1)C(F)(F)F (stereo not given) |  | > 100 µM |  | > 100 µM |  | > 100 µM |  | > 100 µM |  | > 100 µM |  | > 100 µM |  | > 100 µM |  | > 100 µM |  | > 100 µM |  | > 100 µM
11 | O=S(=O)(O)c1ccc(N=Nc2nc(C(F)(F)F)c(C(F)(F)F)[nH]2)cc1 |  | 72.2 µM |  | 29.2 µM |  | > 100 µM |  | 32.9 µM |  | 31.6 µM |  | > 100 µM |  | > 100 µM |  | 46.6 µM |  | 69.9 µM |  | > 100 µM
12 | Cc1cc(Nc2nc(-c3cccnc3)nc3ccccc23)n[nH]1 | 0.943 µM | 35.6 µM | 0.712 µM | 3.57 µM | 9.55 µM | > 100 µM | 0.388 µM | 2.52 µM | 1.62 µM | 6.63 µM | 1.07 µM | 3.74 µM | 0.206 µM | 99.1 µM | 2.33 µM | > 100 µM | 0.481 µM | > 38.5 µM | 4.83 µM | > 100 µM
13 | CC(=O)OC1=CC2=CC[C@H]3[C@@H]4CCC(=O)[C@@]4(C)CC(=O)[C@]3(S)[C@@]2(C)CC1 |  | 93.1 µM |  | 36 µM |  | > 100 µM |  | 39.7 µM |  | 62.8 µM |  | > 100 µM |  | > 100 µM |  | > 100 µM |  | 74.1 µM |  | > 100 µM
14 | NC1=NC(c2ccc(Cl)cc2)N(c2ccc(S(N)(=O)=O)cc2)C(N)=N1 (stereo not given) |  | > 100 µM |  | > 100 µM |  | > 100 µM |  | > 100 µM |  | > 100 µM |  | > 100 µM |  | > 100 µM |  | > 100 µM |  | > 100 µM |  | > 100 µM
15 | S=c1[nH]nc(Cc2ccccc2)c(=S)[nH]1 |  | > 50.1 µM |  | 99.3 µM |  | > 100 µM |  | > 100 µM |  | > 73.1 µM |  | > 100 µM |  | > 100 µM |  | > 100 µM |  | > 100 µM |  | > 100 µM
